Source: US11739098B2 (BRISTOL-MYERS SQUIBB COMPANY, priority 2017, dated 2023)

Key:
Format in all cases: cell-based
human TLR7 = molecular target: T1, human TLR7 (Homo sapiens, UniProt Q9NYK1); experiment: TLR7 inhibition reporter assay (HEK-Blue cells, SEAP reporter, gardiquimod stimulation); conditions: HEK-Blue cells overexpressing human TLR7, SEAP reporter, gardiquimod 7.5 μM
T1 construct: host or cells: HEK-Blue cells (HEK293-derived reporter line)
T1 sequence (Q9NYK1 27-1049): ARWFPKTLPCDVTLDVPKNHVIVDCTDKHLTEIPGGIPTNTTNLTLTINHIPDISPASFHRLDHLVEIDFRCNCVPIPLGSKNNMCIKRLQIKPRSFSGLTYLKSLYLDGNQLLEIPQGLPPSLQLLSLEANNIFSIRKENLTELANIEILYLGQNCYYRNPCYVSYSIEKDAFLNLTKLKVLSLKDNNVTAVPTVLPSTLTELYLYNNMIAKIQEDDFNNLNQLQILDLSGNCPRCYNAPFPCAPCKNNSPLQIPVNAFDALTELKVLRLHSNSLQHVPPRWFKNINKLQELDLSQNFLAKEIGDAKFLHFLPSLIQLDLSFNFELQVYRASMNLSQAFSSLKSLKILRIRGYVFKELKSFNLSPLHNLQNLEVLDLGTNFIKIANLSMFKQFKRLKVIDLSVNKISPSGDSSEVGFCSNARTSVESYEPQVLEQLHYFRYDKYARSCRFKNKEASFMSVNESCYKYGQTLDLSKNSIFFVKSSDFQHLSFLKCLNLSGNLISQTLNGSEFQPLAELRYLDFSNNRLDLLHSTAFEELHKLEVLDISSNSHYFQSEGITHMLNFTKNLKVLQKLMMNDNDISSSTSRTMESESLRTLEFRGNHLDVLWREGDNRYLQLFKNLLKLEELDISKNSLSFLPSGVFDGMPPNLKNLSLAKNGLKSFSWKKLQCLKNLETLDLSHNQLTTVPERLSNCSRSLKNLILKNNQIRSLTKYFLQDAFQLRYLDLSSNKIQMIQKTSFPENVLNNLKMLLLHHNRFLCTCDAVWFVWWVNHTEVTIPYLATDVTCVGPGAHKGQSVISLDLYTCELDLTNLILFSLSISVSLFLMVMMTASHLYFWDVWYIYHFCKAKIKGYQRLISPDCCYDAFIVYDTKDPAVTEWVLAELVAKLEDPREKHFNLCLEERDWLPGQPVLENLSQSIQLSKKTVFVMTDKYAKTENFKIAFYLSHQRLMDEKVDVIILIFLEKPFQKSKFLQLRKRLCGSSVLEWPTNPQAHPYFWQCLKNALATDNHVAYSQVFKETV
Procedure, shortened: (§1)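 Agonists (final): TLR7 gardiquimod 7.5 μM; TLR8 R848 15.9 μM; TLR9 ODN2006 5 nM. HEK-Blue reporter cells, 30 min RT compound pre-incubation, 0.05 nM–50 μM dose range, 22 h at 37 °C, colorimetric SEAP detection medium. % inhibition relative to agonist+DMSO and known-inhibitor wells.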

human TLR8 = molecular target: T2, human TLR8 (Homo sapiens, UniProt Q9NR97); experiment: TLR8 inhibition reporter assay (HEK-Blue cells, SEAP reporter, R848 stimulation); conditions: HEK-Blue cells overexpressing human TLR8, SEAP reporter, R848 15.9 μM
T2 construct: host or cells: HEK-Blue cells (HEK293-derived reporter line)
T2 sequence (Q9NR97 27-1041): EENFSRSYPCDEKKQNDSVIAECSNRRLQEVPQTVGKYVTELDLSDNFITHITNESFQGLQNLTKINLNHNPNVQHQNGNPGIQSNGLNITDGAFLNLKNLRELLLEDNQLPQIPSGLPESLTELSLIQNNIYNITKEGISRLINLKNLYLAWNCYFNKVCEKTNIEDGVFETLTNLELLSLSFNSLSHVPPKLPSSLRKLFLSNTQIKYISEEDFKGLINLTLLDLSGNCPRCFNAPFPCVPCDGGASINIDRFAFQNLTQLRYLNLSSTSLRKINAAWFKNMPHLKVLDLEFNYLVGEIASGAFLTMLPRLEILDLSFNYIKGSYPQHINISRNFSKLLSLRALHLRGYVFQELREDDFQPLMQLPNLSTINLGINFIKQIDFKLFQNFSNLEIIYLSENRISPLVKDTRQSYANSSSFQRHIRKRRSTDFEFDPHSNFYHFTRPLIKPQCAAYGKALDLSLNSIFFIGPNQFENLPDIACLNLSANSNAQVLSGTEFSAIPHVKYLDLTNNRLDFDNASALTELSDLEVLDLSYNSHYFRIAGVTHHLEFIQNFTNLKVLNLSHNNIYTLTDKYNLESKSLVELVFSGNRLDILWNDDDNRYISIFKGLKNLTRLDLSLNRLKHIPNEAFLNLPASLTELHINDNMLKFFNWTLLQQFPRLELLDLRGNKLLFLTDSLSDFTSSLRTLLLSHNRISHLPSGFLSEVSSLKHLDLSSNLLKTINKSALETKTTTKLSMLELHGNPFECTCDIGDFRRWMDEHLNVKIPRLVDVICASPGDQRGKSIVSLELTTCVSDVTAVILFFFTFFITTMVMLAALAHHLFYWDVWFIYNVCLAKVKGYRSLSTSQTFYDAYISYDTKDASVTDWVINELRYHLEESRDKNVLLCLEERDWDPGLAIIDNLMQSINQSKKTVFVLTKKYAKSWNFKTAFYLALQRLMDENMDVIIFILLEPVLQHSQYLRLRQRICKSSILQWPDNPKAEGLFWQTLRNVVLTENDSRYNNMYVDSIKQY
Procedure, shortened: as §1

human TLR9 = molecular target: T3, human TLR9 (Homo sapiens, UniProt Q9NR96); experiment: TLR9 inhibition reporter assay (HEK-Blue cells, SEAP reporter, ODN2006 stimulation); conditions: HEK-Blue cells overexpressing human TLR9, SEAP reporter, ODN2006 5 nM
T3 construct: host or cells: HEK-Blue cells (HEK293-derived reporter line)
T3 sequence (Q9NR96 26-1032): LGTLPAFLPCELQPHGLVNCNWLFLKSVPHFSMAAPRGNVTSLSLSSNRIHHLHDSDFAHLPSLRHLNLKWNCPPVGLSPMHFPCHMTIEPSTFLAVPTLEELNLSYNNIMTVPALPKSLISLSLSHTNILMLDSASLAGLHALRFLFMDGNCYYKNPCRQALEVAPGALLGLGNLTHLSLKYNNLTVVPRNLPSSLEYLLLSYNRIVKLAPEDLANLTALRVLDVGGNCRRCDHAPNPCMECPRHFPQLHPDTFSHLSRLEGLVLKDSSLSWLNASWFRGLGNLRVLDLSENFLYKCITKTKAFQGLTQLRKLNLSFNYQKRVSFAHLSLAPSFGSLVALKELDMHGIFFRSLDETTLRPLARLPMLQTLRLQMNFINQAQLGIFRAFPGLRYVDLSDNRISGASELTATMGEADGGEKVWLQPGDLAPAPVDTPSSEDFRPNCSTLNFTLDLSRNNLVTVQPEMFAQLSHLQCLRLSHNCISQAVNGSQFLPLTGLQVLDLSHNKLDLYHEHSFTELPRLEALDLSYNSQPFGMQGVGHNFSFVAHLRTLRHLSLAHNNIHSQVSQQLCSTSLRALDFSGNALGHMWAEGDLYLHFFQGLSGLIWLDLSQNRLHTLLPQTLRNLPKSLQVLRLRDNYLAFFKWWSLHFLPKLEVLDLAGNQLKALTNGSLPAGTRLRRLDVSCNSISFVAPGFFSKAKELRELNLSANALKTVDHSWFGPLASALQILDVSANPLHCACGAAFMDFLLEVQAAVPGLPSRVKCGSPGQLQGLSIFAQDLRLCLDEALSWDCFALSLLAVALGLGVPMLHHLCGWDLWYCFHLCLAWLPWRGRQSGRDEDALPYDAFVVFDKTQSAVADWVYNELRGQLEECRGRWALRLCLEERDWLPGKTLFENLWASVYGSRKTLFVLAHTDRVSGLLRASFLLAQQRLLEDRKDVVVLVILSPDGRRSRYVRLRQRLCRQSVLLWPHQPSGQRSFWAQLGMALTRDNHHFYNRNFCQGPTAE
Procedure, shortened: as §1

## CC(C)c1c(-c2ccnc3[nH]ncc23)[nH]c2ccc(C3CCNCC3F)cc12 (stereo not drawn) [Example 171, 4-(5-(3-fluoropiperidin-4-yl)-3-isopropyl-1H-indol-2-yl)-1H-pyrazolo[3,4-b]pyridine]
Human TLR7
  IC50: < 100 nM
Human TLR8
  IC50: < 100 nM
Human TLR9
  IC50: 1000 to 50000 nM

## Cc1cc(-c2[nH]c3ccc(C4CCN(C(=O)CN5CCS(=O)(=O)CC5)CC4)cc3c2C(C)C)cn2nnnc12 [Example 485, 2-(1,1-dioxidothiomorpholino)-1-(4-(3-isopropyl-2-(8-methyltetrazolo[1,5-a]pyridin-6-yl)-1H-indol-5-yl)piperidin-1-yl)ethan-1-one]
Human TLR7
  IC50: < 100 nM
Human TLR8
  IC50: < 100 nM
Human TLR9
  IC50: > 50000 nM

## COc1c(C)c(-c2[nH]c3ccc(C4CCN(CC(C)(C)O)CC4)cc3c2C(C)C)nn2ncnc12 [Example 748, 1-(4-(3-isopropyl-2-(8-methoxy-7-methyl-[1,2,4]triazolo[1,5-b]pyridazin-6-yl)-1H-indol-5-yl)piperidin-1-yl)-2-methylpropan-2-ol]
Human TLR7
  IC50: < 100 nM
Human TLR8
  IC50: < 100 nM
Human TLR9
  IC50: 1000 to 50000 nM

## Cc1cc(-c2[nH]c3ccc(C4CCN(CC(N)=O)CC4)cc3c2C(C)C)cn2nnnc12 [Example 311, 2-(4-(3-isopropyl-2-(8-methyltetrazolo[1,5-a]pyridin-6-yl)-1H-indol-5-yl)piperidin-1-yl) acetamide]
Human TLR7
  IC50: < 100 nM
Human TLR8
  IC50: < 100 nM
Human TLR9
  IC50: 1000 to 50000 nM

## Cc1c(-c2ccc3[nH]nnc3c2)[nH]c2ccc(C3CCNCC3)cc12 [Example 52, 5-(3-methyl-5-(piperidin-4-yl)-1H-indol-2-yl)-1H-benzo[d][1,2,3]triazole]
Human TLR7
  IC50: 1000 to 50000 nM
Human TLR8
  IC50: 1000 to 50000 nM
Human TLR9
  IC50: 100 to 1000 nM

## CNCCN1CCC(c2ccc3[nH]c(-c4ccnc5[nH]ccc45)c(C)c3c2)CC1 [Example 668, N-methyl-2-(4-(3-methyl-2-(1H-pyrrolo[2,3-b]pyridin-4-yl)-1H-indol-5-yl)piperidin-1-yl)ethan-1-amine]
Human TLR7
  IC50: 100 to 1000 nM
Human TLR8
  IC50: < 100 nM
Human TLR9
  IC50: 100 to 1000 nM

## Cc1cc(-c2[nH]c3ccc(C4CCNCC4)cc3c2C(C)C)cn2cc(C(=O)N(C)C)nc12 [Example 265, 6-(3-isopropyl-5-(piperidin-4-yl)-1H-indol-2-yl)-N,N,8-trimethylimidazo[1,2-a]pyridine-2-carboxamide]
Human TLR7
  IC50: < 100 nM
Human TLR8
  IC50: < 100 nM
Human TLR9
  IC50: 1000 to 50000 nM

## CC(C)c1c(-c2ccc(C#N)c3ncccc23)[nH]c2ccc(C3CCN(C4COC4)CC3)cc12 [Example 714, 5-(3-isopropyl-5-(1-(oxetan-3-yl)piperidin-4-yl)-1H-indol-2-yl)quinoline-8-carbonitrile]
Human TLR7
  IC50: < 100 nM
Human TLR8
  IC50: < 100 nM
Human TLR9
  IC50: > 50000 nM

## Cc1c(-c2ccnc3[nH]ncc23)[nH]c2ccc(C3CCN(C4CCN(C(C)C)CC4)CC3)cc12 [Example 833, 4-(5-(1′-isopropyl-[1,4′-bipiperidin]-4-yl)-3-methyl-1H-indol-2-yl)-1H-pyrazolo[3,4-b]pyridine]
Human TLR7
  IC50: < 100 nM
Human TLR8
  IC50: < 100 nM
Human TLR9
  IC50: < 100 nM

## CCN(CC)C(=O)C1CCCN(CC(=O)N2CCC(c3ccc4[nH]c(-c5ccnc6[nH]ncc56)c(C(C)C)c4c3)CC2)C1 (stereo not drawn) [Example 588, N,N-diethyl-1-(2-(4-(3-isopropyl-2-(1H-pyrazolo[3,4-b]pyridin-4-yl)-1H-indol-5-yl)piperidin-1-yl)-2-oxoethyl)piperidine-3-carboxamide]
Human TLR7
  IC50: < 100 nM
Human TLR8
  IC50: < 100 nM
Human TLR9
  IC50: 100 to 1000 nM

## Cc1cc2[nH]c(-c3ccnc4[nH]ncc34)c(C(C)C)c2cc1C1CCN(C2CCN(C(C)C)CC2)CC1 [Example 826, 4-(3-isopropyl-5-(1′-isopropyl-[1,4′-bipiperidin]-4-yl)-6-methyl-1H-indol-2-yl)-1H-pyrazolo[3,4-b]pyridine]
Human TLR7
  IC50: < 100 nM
Human TLR8
  IC50: < 100 nM
Human TLR9
  IC50: 100 to 1000 nM

## COc1cc(-c2[nH]c3ccc(C4CCN(C5COC5)CC4)cc3c2C(C)C)cc2ncnn12 [Example 710, 7-(3-isopropyl-5-(1-(oxetan-3-yl)piperidin-4-yl)-1H-indol-2-yl)-5-methoxy-[1,2,4]triazolo[1,5-a]pyridine]
Human TLR7
  IC50: < 100 nM
Human TLR8
  IC50: < 100 nM
Human TLR9
  IC50: 1000 to 50000 nM
